We go through 2 compounds from patent US8968794B2, “Antiseptic compositions and uses thereof” (Ramot at Tel-Aviv University Ltd., priority 2009, dated 2015).

The structures appear in SMILES notation.

Common to all, as to experiment: Bactericidal activity, log10 CFU/ml after 0, 30 and 60 minutes
Common to all, as to format: cell-based

Assay [1] has as its system clinical strain of Multi Drug Resistant Acinetobacter baumannii. The following applies: baseline 6.4. The source says:
(§1) Various bacterial cells lines were obtained from the clinical strains collection of the Laboratory of Molecular Epidemiology and Antimicrobial Resistance, Tel Aviv Sourasky Medical Center. The bactericidal activity of the tested antiseptic combinations was thus tested against Klebsiella pneumoniae, a Methicillin Resistant clinical strain of Staphylococcus aureus (MRSA), a clinical strain of Staphylococcus epidermis, a clinical strain of Extended Spectrum β-lactamase producing Escherichia coli, a clinical strain of Multi Drug Resistant Acinetobacter baumannii, and a clinical strain of Multi Drug Resistant Pseudomonas aeruginosa.
(§2) The bacterial growth protocol was essentially as described above only that bacteria cell lines were grown in BHI growth medium (and following the growth of the cells in the medium, the bacterial suspension was adjusted to 10^7 CFU/ml by dilution with sterile medium). In addition, in these experiments, the static incubation of each bacterial suspension with the silver ion+menthol combination was for 0, 30 and 60 minutes.
(§3) The effect of a combination of 0.01% silver ions and 0.05% menthol (solubilized by 0.5% (v/v) TWEEN 20) on the growth and viability of various types of bacteria was evaluated.
(§4) Cells incubated with NaNO3 0.9% (w/v) solution alone, without the addition of any antiseptic agent, served as control.
(§5) Table 2 presents the log10 CFU/ml calculated for different types of bacterial cell suspensions incubated for 0, 30 and 60 minutes with no antiseptic agent (control) or either 0.01% silver ions (0.01% AgNO3) alone, 0.05% menthol alone or a combination of 0.01% silver ions and 0.05% menthol. A baseline level was defined as the observed bacteria growth at time 0 when no antiseptic agent was added to the bacterial suspension.

The subject of assay [2] is Methicillin Resistant clinical strain of Staphylococcus aureus (MRSA). Conditions: baseline 6.1.
Excerpt: as §1, §2, §3, §4, §5

For the next assay, the system named is Klebsiella pneumoniae. Conditions: baseline 6.8.
Excerpt: as §1, §2, §3, §4, §5

The test system of assay [3] is clinical strain of Multi Drug Resistant Pseudomonas aeruginosa. Conditions: baseline 6.5.
Excerpt: as §1, §2, §3, §4, §5

In assay [4] the test system is clinical strain of Staphylococcus epidermis. The following applies: baseline 5.4.
Excerpt: as §1, §2, §3, §4, §5

Assay [5] deals with clinical strain of Extended Spectrum β-lactamase producing Escherichia coli. The following applies: baseline 5.9.
Excerpt: as §1, §2, §3, §4, §5

For assay [6], the system named is Escherichia coli ATCC 47076. Conditions: baseline 7.3. On the procedure: A frozen stock of E. coli ATCC 47076 was grown overnight (1 ml in 9 ml LB medium) in a shaker incubator (200 rpm at 37° C.) until the OD600nm of the medium reached 1.6-1.8. […] The Bacterial suspension was adjusted to 10^8 CFU/ml by dilution with sterile medium. The Bacterial cells were then washed three times with 0.9% NaNO3. The NaNo3 washing cycles was performed by transferring 5 ml of the bacterial suspensions into 15 ml test tubes and subjecting the suspension to centrifugation at 4000 rpm at 4° C. for 5 minutes, followed by removal of the supernatant and re-suspension of the bacterial cell pellet in 5 ml of 0.9% NaNO3. The bactericidal activity of various concentration combinations of silver ions (from AgNO3) and menthol (solubilized by the addition of 0.5% TWEEN 20) was then assessed by adding 5 ml of the tested combinations to the bacterial cell pellets prepared as described hereinbelow and re-suspending the cell pellets by vortex. A test tube containing only 0.9% NaNO3 served as control. The bacterial suspensions thus obtained were transferred to sterile glass tubes to reduce potential cell adsorption to the walls, and kept covered at 37° C. throughout the testing period. Following 5 minutes of static incubation, 100 μl samples of the treated bacterial suspension were removed, and […] decimal dilutions in NaNO3 0.9% of the suspension were dropped onto LB agar plates. The level of bacterial proliferation was assessed by counting the number of colonies that grew on the plates and calculating the CFU/ml and log10 CFU/ml following 18 hours of incubation at 37° C. Higher log10 CFU/ml calculated for a bacterial suspension, incubated with a specific combination, is indicative of a lower level of bactericidal activity of that combination. The bacterial growth protocol was essentially as described above only that bacteria cell lines were grown in BHI growth medium (and following the growth of the cells in the medium, the bacterial suspension was adjusted to 10^7 CFU/ml by dilution with sterile medium). In addition, in these experiments, the static incubation of each bacterial suspension with the silver ion+menthol combination was for 0, 30 and 60 minutes. […] Cells incubated with NaNO3 0.9% (w/v) solution alone, without the addition of any antiseptic agent, served as control. […] S. Block, Editor. 2000, Lippincott Williams and Wilkins, pp 1305-1328. […] A baseline level was defined as the observed bacteria growth at time 0 when no antiseptic agent was added to the bacterial suspension.

Regarding `O=[N+]([O-])[O-].[Ag+]` [0.01% AgNO3, silver nitrate], the “log10 CFU/ml of bacteria” value in assay [1] (treated for 0 minutes) is 6.3 log10 CFU/ml; in assay [1] (treated for 30 minutes), 0 log10 CFU/ml; in assay [1] (treated for 60 minutes), 0 log10 CFU/ml; in assay [2] (treated for 0 minutes), 5.4 log10 CFU/ml; in assay [2] (treated for 30 minutes) it was 0 log10 CFU/ml; in assay [2] (treated for 60 minutes), 0 log10 CFU/ml. Further, the “log10 CFU/ml of bacteria” value in the assay with Klebsiella pneumoniae (treated for 0 minutes) is given as 0 log10 CFU/ml; in the assay with Klebsiella pneumoniae (treated for 30 minutes), 0 log10 CFU/ml; in the assay on Klebsiella pneumoniae (treated for 60 minutes), 0 log10 CFU/ml; in assay [3] (treated for 0 minutes), 5.1 log10 CFU/ml; in assay [3] (treated for 30 minutes), 0 log10 CFU/ml; in assay [3] (treated for 60 minutes), 0 log10 CFU/ml. Besides, the “log10 CFU/ml of bacteria” value in assay [4] (treated for 0 minutes) is on record as 0 log10 CFU/ml; in assay [4] (treated for 30 minutes), 0 log10 CFU/ml; in assay [4] (treated for 60 minutes), 0 log10 CFU/ml; in assay [5] (treated for 0 minutes), 4.8 log10 CFU/ml; in assay [5] (treated for 30 minutes), 0 log10 CFU/ml; in assay [5] (treated for 60 minutes) it was 0 log10 CFU/ml. Further, the “log10 CFU/ml of bacteria” value in assay [6] (treated for 0 minutes) is reported as 6.4 log10 CFU/ml; in assay [6] (treated for 30 minutes) it was 0 log10 CFU/ml; in assay [6] (treated for 60 minutes), 0 log10 CFU/ml.

Regarding `CC(C)[C@H]1CC[C@@H](C)C[C@@H]1O` [0.05% Menthol, 5-methyl-2-propan-2-yl-cyclohexan-1-ol], the “log10 CFU/ml of bacteria” value in assay [1] (treated for 0 minutes) turned out to be 6.4 log10 CFU/ml; in assay [1] (treated for 30 minutes), 6.3 log10 CFU/ml; in assay [1] (treated for 60 minutes), 6.2 log10 CFU/ml; in assay [2] (treated for 0 minutes) it was 6.3 log10 CFU/ml; in assay [2] (treated for 30 minutes), 6.3 log10 CFU/ml; in assay [2] (treated for 60 minutes), 6.2 log10 CFU/ml. The “log10 CFU/ml of bacteria” value turned out to be 6.2 log10 CFU/ml in the assay with Klebsiella pneumoniae (treated for 0 minutes); 4.9 log10 CFU/ml in the assay on Klebsiella pneumoniae (treated for 30 minutes); 3.8 log10 CFU/ml in the assay with Klebsiella pneumoniae (treated for 60 minutes); 5.8 log10 CFU/ml in assay [3] (treated for 0 minutes); 3.5 log10 CFU/ml in assay [3] (treated for 30 minutes); 2.5 log10 CFU/ml in assay [3] (treated for 60 minutes). The “log10 CFU/ml of bacteria” value in assay [4] (treated for 0 minutes) came to 5.4 log10 CFU/ml; in assay [4] (treated for 30 minutes), 5.4 log10 CFU/ml; in assay [4] (treated for 60 minutes), 5.3 log10 CFU/ml; in assay [5] (treated for 0 minutes) it was 4.9 log10 CFU/ml; in assay [5] (treated for 30 minutes) it was 4.9 log10 CFU/ml; in assay [5] (treated for 60 minutes), 4.9 log10 CFU/ml. The “log10 CFU/ml of bacteria” value in assay [6] (treated for 0 minutes) turned out to be 5.3 log10 CFU/ml; in assay [6] (treated for 30 minutes) it was 0 log10 CFU/ml; in assay [6] (treated for 60 minutes), 0 log10 CFU/ml.
